In brackets after ≈: the same amount, converted by molar mass.
Tests used:
Type in all cases: functional
Tetranychus urticae = experiment: Insecticidal activity against Tetranychus urticae (two-spotted spider mite) in kidney bean plant leaf assessed as mortality at 500 ppm after 2 days; details: 48 h
[1] = tested on: Henosepilachna vigintioctopunctata; experiment: Insecticidal activity against third-instar larvae of Henosepilachna vigintioctopunctata assessed as mortality after 2 days; details: 48 h
Laodelphax striatellus = experiment: Insecticidal activity against 3rd instar larva of Laodelphax striatella (small brown planthopper) assessed as mortality at 50 ppm after 6 days; details: 144 h
Chilo suppressalis = experiment: Insecticidal activity against 5th instar larva of Chilo suppressalis assessed as mortality at 50 ug/g after 48 hr
Spodoptera litura = experiment: Insecticidal activity against third-instar larvae of Spodoptera litura in soybean seedlings assessed as mortality at 500 ppm after 48 hr

Row | Structure (SMILES) | mortality at 500 ppm (Tetranychus urticae) [%] | LC50 [1] [µg/mL] | mortality at 50 ppm (Laodelphax striatellus) [%] | mortality (Chilo suppressalis) [%] | mortality at 500 ppm (Spodoptera litura) [%]
1 | Cc1ccc(C)c(C2(C#N)SCC(N(C)C)CS2)c1 (stereo not drawn) | 100 | 25 (≈ 85.5 µM) | 15 | 100 | –
2 | CN(C)C1CSC(C#N)(C(N)=O)SC1 (stereo not drawn) | 100 | 30 (≈ 130 µM) | 35 | 100 | 100
3 | CNC(=O)C1(C#N)SCC(N(C)C)CS1 (stereo not drawn) | 100 | 25 (≈ 102 µM) | 50 | 100 | 90
4 | CCNC(=O)C1(C#N)SCC(N(C)C)CS1 (stereo not drawn) | 90 | 6 (≈ 23.1 µM) | 20 | 100 | 80
5 | CCCNC(=O)C1(C#N)SCC(N(C)C)CS1 (stereo not drawn) | 100 | 11 (≈ 40.2 µM) | 20 | 100 | 60
6 | CC(C)NC(=O)C1(C#N)SCC(N(C)C)CS1 (stereo not drawn) | 100 | 40 (≈ 146 µM) | 20 | 100 | 40
7 | CCCCNC(=O)C1(C#N)SCC(N(C)C)CS1 (stereo not drawn) | 100 | 40 (≈ 139 µM) | 20 | 100 | 80
8 | CCC(C)NC(=O)C1(C#N)SCC(N(C)C)CS1 (stereo not drawn) | 100 | 33 (≈ 115 µM) | 25 | 100 | 80
9 | CN(C)C1CSC(C#N)(C(=O)NC(C)(C)C)SC1 (stereo not drawn) | 100 | 20 (≈ 69.6 µM) | 45 | 100 | 80
10 | CCCCCNC(=O)C1(C#N)SCC(N(C)C)CS1 (stereo not drawn) | 50 | 10 (≈ 33.2 µM) | 29 | 100 | 50
11 | CCCCCCNC(=O)C1(C#N)SCC(N(C)C)CS1 (stereo not drawn) | 100 | 10 (≈ 31.7 µM) | 65 | 100 | 70
12 | CCCCCCCNC(=O)C1(C#N)SCC(N(C)C)CS1 (stereo not drawn) | 90 | 23 (≈ 69.8 µM) | 80 | 100 | 80
13 | CCCCCCCCNC(=O)C1(C#N)SCC(N(C)C)CS1 (stereo not drawn) | 100 | 23 (≈ 66.9 µM) | 80 | 100 | 80
14 | CCCCCCCCCNC(=O)C1(C#N)SCC(N(C)C)CS1 (stereo not drawn) | 100 | 23 (≈ 64.3 µM) | 100 | 100 | 90
15 | CCCCCCCCCCNC(=O)C1(C#N)SCC(N(C)C)CS1 (stereo not drawn) | 90 | 20 (≈ 53.8 µM) | 85 | 100 | 50
16 | CCCCCCCCCCCCCCNC(=O)C1(C#N)SCC(N(C)C)CS1 (stereo not drawn) | 70 | 33 (≈ 77.2 µM) | 25 | 100 | 70
17 | CN(C)C1CSC(C#N)(C(=O)NC2CC2)SC1 (stereo not drawn) | 40 | 8 (≈ 29.5 µM) | 25 | 100 | 50
18 | CN(C)C1CSC(C#N)(C(=O)NC2CCCCC2)SC1 (stereo not drawn) | 80 | 25 (≈ 79.7 µM) | 40 | 100 | 50
19 | CN(C)C(=O)C1(C#N)SCC(N(C)C)CS1 (stereo not drawn) | 70 | 11 (≈ 42.4 µM) | 20 | 100 | 80
20 | CCN(CC)C(=O)C1(C#N)SCC(N(C)C)CS1 (stereo not drawn) | 80 | 15 (≈ 52.2 µM) | 24 | 100 | 80
21 | CC(C)N(C(=O)C1(C#N)SCC(N(C)C)CS1)C(C)C (stereo not drawn) | 100 | 16 (≈ 50.7 µM) | 26 | 100 | 60
22 | CN(C)C1CSC(C#N)(C(=O)N2CCCC2)SC1 (stereo not drawn) | 100 | 10 (≈ 35 µM) | 25 | 100 | 20
23 | CN1CCN(C(=O)C2(C#N)SCC(N(C)C)CS2)CC1 (stereo not drawn) | 100 | 20 (≈ 63.6 µM) | 35 | 100 | 20
24 | CN(C)C1CSSC1 [NEREISTOXIN] | 50 | – | 80 | 100 | 90

— ChEMBL document CHEMBL3044990, “Synthesis and Insecticidal Activity of 5-Dimethylamino-1, 3dithianes” (1991)
